Laboratory results from patent US20130064855A1, “REPROGRAMMING IMMUNE ENVIRONMENT IN BREAST CANCER VIA DENDRITIC CELLS” (BAYLOR RESEARCH INSTITUTE, priority 2011, published 2013).
“Also recorded” adds a separate entry of the source.

What was measured:
CD8+ T cells = test: curdlan-treated, tumor supernatant-activated mDCs co-cultured with allogenic naive total T cells; CD103 staining; assay type: cell-based, human; conditions: mDCs pre-treated with 100 ug/ml curdlan, MDA-MB231 supernatant 48 hrs, co-culture one week
Protocol: Sorted mDCs (HLA-DR+/CD11c+/CD123−/Lin−) were pre-treated with 100 ug/ml curdlan and activated by supernatant of a breast cancer cell line (MDA-MB231) for 48 hrs and then co-culture with allogenic naive total T cells (FIG. 7A). After one week, cells were collected and stained with intraepithelial marker, CD 103, together with granzymeA and granzymeB staining CD8+ T cells were sorted from in vitro culture and intratumoral inject into NOD-SCID mice. After 3 days, tumors were harvested and digested with collagenase (FIG. 7B).

[1] = tested on: allogenic naive CD4+ T cells; test: curdlan-treated, tumor supernatant-activated mDCs co-cultured with allogenic naive CD4+ T cells; intracellular cytokines; assay type: cell-based, human; conditions: mDCs pre-treated with 100 ug/ml curdlan, MDA-MB231 supernatant 48 hrs, co-culture one week
Excerpt: After one week, cells were collected and re-stimulated for intracellular cytokines analysis. The analysis of different studies showing the effect of curdlan treatment in the induction of TNFa+IL-13+ secreting cells is shown in FIG. 5 B.

[2] = tested on: myeloid dendritic cells (mDCs); test: mDCs pre-treated with curdlan and cultured with breast tumor derived products; phenotype staining and cytokine in supernatant; assay type: cell-based, human
Excerpt: Isolation and culture of myeloid dendritic cells: DCs were purified from buffy coat of blood from healthy donors. Briefly, DCs were enriched from mononuclear cells by negative selection using a mixture of antibodies against lineage markers for CD3, CD14, CD16, CD19, CD56 and glycophorin A (Dynabeads® Human DC Enrichment Kit, Invitrogen). Cells from negative fraction were immuno-labeled with anti-human FITC-labeled lineage cocktail (CD3, CD14, CD16, CD19, CD20 and CD56, BD biosciences Cat. 340546); PE-labeled CD123 (mIgG1, clone 9F5, BD biosciences Cat. 340545), QR-labeled HLA-DR (mIgG2a, clone HK14, Sigma-Aldrich Cat. R8144) and APC-labeled CD11c (mIgG2b, clone S—HCL-3, BD biosciences Cat. 340544). DCs (lin^−, CD123^−, HLA-DR^+, CD11c^+) were sorted in a FACS Aria cytometer (BD Bioscience). DCs were seeded at 100×10^3 cells/well in 200 μl of medium (RPMI supplemented with glutamine 2 mM, penicillin 50 U/ml, streptomycin 50 μg/ml, MEM non-essential amino acids 0.1 mM, HEPES buffer 10 mM, sodium pyruvate 0.1 mM and 10% of human AB serum). DCs were cultured with medium alone or in the presence of 20 ng/ml of TSLP, or different tumor derived products. After 48 hrs DCs were harvested and washed. The stimulated cells were stained for phenotype analysis or co-culture with allogeneic naïve CD4 T cells.
Tumor factors preparation: Tumor factors were obtained from supernatant of HS578T cells cultured in vitro or by sonication from tumor cell lines, human breast tumor tissue or tumors from humanized mice. Briefly, cell lines were culture in medium (RPMI supplemented with glutamine 2 mM, penicillin 50 U/ml, streptomycin 50 μg/ml, MEM non-essential amino acids 0.1 mM, HEPES buffer 10 mM, sodium pyruvate 0.1 mM and 10% of fetal calf serum), and when the cells reached 90% of confluence fresh medium was added and left the cells in culture for additional 48 hrs. For sonication cells or tissues were placed in PBS and were disrupted during 30 seconds at 4° C., with the power output adjusted at 4.5 level of the 60 sonic dismembrator (Fisher Scientific). Cellular debris were removed by centrifugation and the supernatant was collected and stored at −80° C.
The present inventors believe that DC activators can modulate the functions of DCs and reprogram the immune microenvironment (FIG. 4 A). FIGS. 4B, 4C and 4D show the results when DCs were purified from buffy coat of blood from healthy donors. DCs were cultured with medium alone or in the presence of tumor derived products (FIG. 4B). The curdlan treatment is 3 min at room temperature prior to adding tumor supernatant. After 48 hrs, DCs were harvested and washed. The stimulated cells were staining for phenotype (OX40L, pSTAT4 and pSTAT6). The supernatant of DC culture was used for cytokine (IL-12p70) examination (FIGS. 4C and 4D).

[3] = tested on: Hs578T breast cancer cells; test: breast tumor growth in tumor bearing humanized mice; assay type: in vivo, NOD/SCID/β2−/− mice; conditions: curdlan (100 ug/ml) co-injected with DCs and T cells at days 3, 6 and 9 post tumor implantation
Excerpt: Tumor bearing humanized mice: CD34+hematopoietic progenitor cells (HPCs) were obtained from apheresis of adult healthy volunteers mobilized with G-CSF and purified as previously described. The CD34− fraction of apheresis was Ficoll purified, and obtained PBMCs were stored frozen and used as a source of autologous T cells. Three million CD34+HPCs were transplanted intravenously into sublethally irradiated (12 cGy/g body weight of 137Cs γ irradiation) NOD/SCID/β2−/− mice ([…]). After 4 weeks of engraftment 10 million Hs578T breast cancer cells were harvested from cultures and injected subcutaneously into the flanks of the mice. Mice were reconstituted with 10 million CD4+ T cells and 10 million CD8+ T cells autologous to the grafted CD34+ HPCs. CD4+ and CD8+ T cells were positively selected from thawed PBMCs using magnetic selection according to the manufacturer's instructions (Miltenyi Biotec). The purity was routinely >90%. […] Tumor size was monitored every 2-3 d. Tumor volume (ellipsoid) was calculated as follows: [(short diameter)^2×long diameter]/2.
FIGS. 6A and 6B show NOD/SCID/β2−/− mice sub-lethally irradiated the day before tumor implantation. […] Tumor size was monitored every 2-3 d. Tumor volume (ellipsoid) was calculated as follows: [(short diameter)^2×long diameter]/2. […] Supernatant was harvested and cytokines were detected by Luminex.

[4] = curdlan treatment prior to tumor supernatant, 48 hrs

Substance: β-glucan
- expansion of CD8+ T cells expressing CD103 (CD8+ T cells): expand CD8+ T cells expressing CD103
- expansion of TNFα and IL-13-producing CD4+ T cells (inflammatory Th2 phenotype) [1]: can be inhibited; also recorded: do not expand TNFα and IL-13-producing CD4+ T cells; also recorded: non-expansion of TNFα and IL-13-producing CD4+ T cells
- OX40L expression on mDCs (TSLP-mediated OX40L induction) [2, 4]: inhibition of TSLP-mediated OX40L induction; also recorded: can block OX40L expression
- pSTAT4/pSTAT6 ratio in mDCs [2, 4]: pSTAT4/pSTAT6 ratio increase
- IL-12p70 secretion by mDCs ([2]; mDCs activated by breast tumor supernatant, DC culture supernatant, 48 hrs): induction of IL-12p70 secretion; also recorded: secrete higher levels of IL-12p70; also recorded: secretion of high levels of IL-12p70
- STAT6 phosphorylation in mDCs ([2]; tumor associated mDCs): blocking STAT6 phosphorylation; also recorded: block in STATE phosphorylation
- breast tumor growth / development [3]: blocks breast tumor growth; also recorded: can inhibit breast tumor development; also recorded: inhibited breast tumor development
